Drawing on patent US10640495B2, “Heterocycle derivatives having TrkA inhibitory activity” (Shionogi & Co., Ltd., priority 2015, dated 2020), this text covers IC50 for 49 compounds.

pIC50: −log10 of the molar value. A value given as a limit tells only on which side of the number the result lay.

human TrkA, sequence (P04629 440-796): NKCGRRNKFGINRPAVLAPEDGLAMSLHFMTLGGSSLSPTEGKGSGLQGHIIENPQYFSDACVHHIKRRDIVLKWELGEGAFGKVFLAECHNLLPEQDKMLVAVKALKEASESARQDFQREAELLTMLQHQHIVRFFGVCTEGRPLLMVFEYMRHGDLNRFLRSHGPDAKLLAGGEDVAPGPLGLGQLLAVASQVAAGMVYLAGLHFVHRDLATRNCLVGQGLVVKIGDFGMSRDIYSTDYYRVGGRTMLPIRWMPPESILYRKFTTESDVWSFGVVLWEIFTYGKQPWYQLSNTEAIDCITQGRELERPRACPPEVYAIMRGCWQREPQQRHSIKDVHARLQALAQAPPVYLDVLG

The target of the first experiment is human TrkA (Homo sapiens (Human), UniProt P04629). The experiment in a line: Human TrkA inhibition assay (Test Example 2). The format is biochemical. Conditions: Table 152, human TrkA inhibition; read-out: IC50_nM. The method, boiled down:
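Mobility-shift readout of phosphorylated versus unphosphorylated fluorescent peptide gave conversion ratio, normalized to DMSO and no-enzyme wells; IC50 by logistic fit of 10- or 15-point 3-fold dilutions. Conditions: 1 nmol/L enzyme, 15 min compound preincubation, then 500 μmol/L ATP plus 1.5 μmol/L peptide, 120 min, 37 °C.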
For the compound `Cc1c(-c2cnn(C)c2)nn(-c2ccccc2)c1NC(=O)N[C@@H]1CN(Cc2csnn2)O[C@H]1c1ccccc1` (racemic) [Compound I-2], the pIC50 is 6.00 to 7.00.

Staying with this experiment, now noted: Table 153, human TrkA inhibition; read-out: IC50.
For the compound `COCC[C@@H]1C[C@@H](NC(=O)Nc2c(C)c(-c3cnc4c(cnn4C)c3)nn2-c2ccccc2)[C@H](c2ccnc(F)c2)O1` (racemic) [Compound I-97], the pIC50 is over 7.00.
Same read-out and setting: next, `COCCN1C[C@@H](NC(=O)Nc2c(C)c(-c3cnn(C)c3)nn2-c2ccc(F)c(F)c2)[C@H](c2ccc(F)c(F)c2)O1` (racemic) [Compound I-86]: over 7.00; `COCCN1C[C@@H](NC(=O)Nc2c(C)c(-c3cnc4c(c3)oc(=O)n4C)nn2-c2ccccc2)[C@H](c2cnc(F)c(F)c2)O1` (racemic) [Compound I-123]: over 7.00.
On the same count and under the same terms, next, `CCOc1ncc(-c2nn(-c3ccccc3)c(NC(=O)N[C@H]3CN(CCOC)O[C@@H]3c3ccnc(F)c3)c2C)cn1` [Compound I-130]: under 6.00; `COCCN1C[C@@H](NC(=O)Nc2c(C)c(-c3cnc(OC)c(C(N)=O)c3)nn2-c2ccccc2)[C@H](c2ccnc(F)c2)O1` (racemic) [Compound I-109]: over 7.00.
The same measure, in the same setting: next, `COCCN1C[C@@H](NC(=O)Nc2c(C)c(-c3cccc(N=S(C)(C)=O)c3)nn2-c2ccccc2)[C@H](c2ccc(F)c(F)c2)O1` (racemic) [Compound I-89]: over 7.00; `COCCN1C[C@@H](NC(=O)Nc2c(C)c(-c3cnc(C)nc3)nn2-c2ccccc2)[C@H](c2ccccc2)O1` (racemic) [Compound I-160]: over 7.00; `COCC[C@@H]1C[C@@H](NC(=O)Nc2c(C)c(C3=CCN(C(=O)CO)CC3)nn2-c2ccccc2)[C@H](c2ccc(F)c(F)c2)O1` [Compound I-59]: over 7.00.
As to `COCCN1C[C@@H](NC(=O)Nc2c(C)c(-c3cnc(OC)c(C(=O)N[C@@H]4CCOC4)c3)nn2-c2ccccc2)[C@H](c2ccnc(F)c2)O1` [Compound I-113], the pIC50 is over 7.00.
Still for that read-out and setting: the figure for `COCCN1C[C@@H](NC(=O)Nc2c(C)c(-c3cnc4c(c3)ncn4C)nn2-c2ccccc2)[C@H](c2cnc(F)c(F)c2)O1` (racemic) [Compound I-69] is over 7.00.

The experiment is the same for the next values; noted with them: Table 154, human TrkA inhibition; read-out: IC50.
Consider `COCC[C@@H]1C[C@@H](NC(=O)Nc2c(C)c(-c3ccc(N=S(C)(C)=O)nc3)nn2-c2ccccc2)[C@H](c2ccc(F)c(F)c2)O1` (racemic) [Compound I-185], for which the pIC50 was over 7.00.
Turning to `COCCN1C[C@@H](NC(=O)Nc2c(C)c(-c3cnc(C(=O)NC4CC4)c(C)c3)nn2-c2ccccc2)[C@H](c2cnc(F)c(F)c2)O1` [Compound I-254], the pIC50 is over 7.00.
The same measure, in the same setting: next, `COCCN1C[C@@H](NC(=O)Nc2c(C)c(-c3cnc(C(N)=O)c(F)c3)nn2-c2ccccc2)[C@H](c2ccc(F)c(F)c2)O1` [Compound I-312]: over 7.00; `COCC[C@@H]1C[C@@H](NC(=O)Nc2c(C)c(-c3cnc4c(c3)c(C)nn4C)nn2-c2ccccc2)[C@H](c2ccnc(F)c2)O1` [Compound I-274]: over 7.00; `Cc1c(-c2cnc3c(cnn3C)c2)nn(-c2ccccc2)c1NC(=O)N[C@@H]1CN(Cc2cn[nH]c2)O[C@H]1c1ccc(F)c(F)c1` (racemic) [Compound I-204]: 6.00 to 7.00.
In the case of `COCCN1C[C@@H](NC(=O)Nc2c(C)c(-c3cnc(C(N)=O)c(OC)c3)nn2-c2ccccc2)[C@H](c2ccnc(F)c2)O1` (racemic) [Compound I-317], the pIC50 is over 7.00.
On the same count and under the same terms, next, `COCCN1C[C@@H](NC(=O)Nc2c(C)c(-c3cnc(Cl)nc3)nn2-c2ccccc2)[C@H](c2ccnc(F)c2)O1` (racemic) [Compound I-249]: over 7.00; `COCCN1C[C@@H](NC(=O)Nc2c(C)c(-c3cnc(OC)c(C(=O)N[C@@H]4CCOC4)c3)nn2-c2ccccc2)[C@H](c2ccnc(F)c2)O1` [Compound I-192]: over 7.00.
The same measure, in the same setting: next, `COCCN1C[C@@H](NC(=O)Nc2c(C)c(-c3cnc4c(cnn4CC(F)(F)F)c3)nn2-c2ccccc2)[C@H](c2ccnc(F)c2)O1` (racemic) [Compound I-228]: over 7.00.
Consider `COCC[C@@H]1C[C@@H](NC(=O)Nc2c(C)c(-c3cnc(NC4CC4)nc3)nn2-c2ccccc2)[C@H](c2ccnc(F)c2)O1` [Compound I-293], for which the pIC50 was over 7.00.

Still in this experiment, the particulars now being: Table 155, human TrkA inhibition; read-out: IC50.
`COCCN1C[C@@H](NC(=O)Nc2c(C)c(-c3cnc4c(c3)CCN4)nn2-c2ccccc2)[C@H](c2ccnc(F)c2)O1` (racemic) [Compound I-351]: the pIC50 was over 7.00.
Regarding `COCCN1C[C@@H](NC(=O)Nc2c(C)c(-c3ccc(N4CCNCC4)nc3)nn2-c2ccccc2)[C@H](c2ccnc(F)c2)O1` (racemic) [Compound I-374], the pIC50 was over 7.00.
Take `COCCN1C[C@@H](NC(=O)Nc2c(C)c(-c3cnc(OC(CF)CF)nc3)nn2-c2ccccc2)[C@H](c2ccnc(F)c2)O1` (racemic) [Compound I-478]: the pIC50 was over 7.00.
The same measure, in the same setting: next, `COCC[C@@H]1C[C@@H](NC(=O)Nc2c(C)c(-c3cnc4c(c3)c(=O)n(C)n4C)nn2-c2ccccc2)[C@H](c2ccnc(F)c2)O1` [Compound I-330]: over 7.00; `COCCN1C[C@@H](NC(=O)Nc2c(C)c(-c3cnc4c(c3)c(CN3CCC(F)(F)C3)nn4C)nn2-c2ccccc2)[C@H](c2ccnc(F)c2)O1` (racemic) [Compound I-423]: over 7.00.
Same read-out and setting: next, `COCCN1C[C@@H](NC(=O)Nc2c(C)c(-c3cnc(OC(F)F)nc3)nn2-c2ccccc2)[C@H](c2ccnc(F)c2)O1` (racemic) [Compound I-328]: over 7.00; `COCCN1C[C@@H](NC(=O)Nc2c(C)c(-c3cnc(Br)nc3)nn2-c2ccccc2)[C@H](c2ccnc(F)c2)O1` (racemic) [Compound I-433]: over 7.00.
On to `COCCN1C[C@@H](NC(=O)Nc2c(C)c(-c3cnc(N4CC(F)C4)nc3)nn2-c2ccccc2)[C@H](c2ccnc(F)c2)O1` (racemic) [Compound I-480], for which the pIC50 was over 7.00.
Same read-out and setting: next, `COCCN1C[C@@H](NC(=O)Nc2c(C)c(-c3ccc4nc(CO)cn4c3)nn2-c2ccccc2)[C@H](c2ccc(F)c(F)c2)O1` [Compound I-451]: over 7.00.

Staying with this experiment, now noted: Table 156, human TrkA inhibition; read-out: IC50.
With `COCCN1C[C@@H](NC(=O)Nc2c(C)c(OCCN(C)C)nn2-c2ccccc2)[C@H](c2ccc(F)c(F)c2)O1` [Compound I-572], the pIC50 was over 7.00.
Same read-out and setting: the figure for `COCCN1C[C@@H](NC(=O)Nc2c(C)c(OCC3CN(C)CCO3)nn2-c2ccccc2)[C@H](c2ccc(F)c(F)c2)O1` (single isomer, unassigned) [Compound I-579] is over 7.00; for `CCN1C[C@@H](NC(=O)Nc2c(C)c(-c3cnc4c(c3)oc(=O)n4C)nn2-c2ccccc2)[C@H](c2ccc(F)c(F)c2)O1` (racemic) [Compound I-539] it is over 7.00; for `COCC[C@@H]1C[C@@H](NC(=O)Nc2c(C)c(-c3cnc(N4CC(OC)C4)nc3)nn2-c2ccccc2)[C@H](c2ccnc(F)c2)O1` [Compound I-553] it is over 7.00.
Still for that read-out and setting: the figure for `Cc1c(OCC2CCN(C)CC2)nn(-c2ccccc2)c1NC(=O)N[C@@H]1CN(CC(F)F)O[C@H]1c1ccc(F)c(F)c1` (racemic) [Compound I-568] is over 7.00; for `COCCN1C[C@@H](NC(=O)Nc2c(C)c(-c3cnc(N4CC5CC(C4)O5)nc3)nn2-c2ccccc2)[C@H](c2cnc(F)c(F)c2)O1` [Compound I-514] it is over 7.00; for `COCCN1C[C@@H](NC(=O)Nc2c(C)c(C)nn2-c2ccccc2)[C@H](c2ccc(F)c(F)c2)O1` [Compound I-518] it is over 7.00.

The experiment is the same for the next values; noted with them: Table 157, human TrkA inhibition; read-out: IC50.
In the case of `COCCN1C[C@@H](NC(=O)Nc2c(C)c(-c3ccnc(CN(C)C)c3)nn2-c2ccccc2)[C@H](c2ccc(F)c(F)c2)O1` [Compound I-618], the pIC50 was over 7.00.
On the same count and under the same terms, next, `COCCN1C[C@@H](NC(=O)Nc2c(Br)c(-c3cnc(OC)nc3)nn2-c2ccccc2)[C@H](c2ccnc(F)c2)O1` [Compound I-680]: over 7.00; `CCN1C[C@@H](NC(=O)Nc2c(C)c(OCCCCO)nn2-c2ccccc2)[C@H](c2ccc(F)c(F)c2)O1` (racemic) [Compound I-670]: over 7.00; `CCN1C[C@@H](NC(=O)Nc2c(C)c(OCC3CCN(C(=O)CO)CC3)nn2-c2ccccc2)[C@H](c2ccc(F)c(F)c2)O1` (racemic) [Compound I-607]: over 7.00.
The same measure, in the same setting: next, `CCN1C[C@@H](NC(=O)Nc2c(C)c(OCC(=O)NCC(C)(C)O)nn2-c2ccccc2)[C@H](c2ccc(F)c(F)c2)O1` (racemic) [Compound I-652]: over 7.00.

Staying with this experiment, now noted: human TrkA 1 nmol/L, ATP 500 μmol/L, 120 min at 37° C.; read-out: IC50 values (TrkA phosphorylation inhibition).
For `COCCN1C[C@@H](NC(=O)Nc2c(C)c(-c3cc(C(=O)NC4CCOCC4)c(=O)n(C)c3)nn2-c2ccccc2)[C@H](c2ccnc(F)c2)O1` (racemic) [Compound I-108], the pIC50 is 9.00.
On the same count and under the same terms, the figure for `CCN1C[C@@H](NC(=O)Nc2c(C)c(OCC3CCN(C)CC3)nn2-c2ccccc2)[C@H](c2ccc(F)c(F)c2)O1` [Compound I-536] is 8.40; for `COCCN1C[C@@H](c2ccnc(F)c2)[C@H](NC(=O)Nc2c(C)c(-c3cnn(C)c3)nn2-c2ccccc2)O1` (racemic) [Compound I-136] it is 7.52; for `COCCN1C[C@@H](NC(=O)Nc2c(C)c(-c3cnn(C)c3)nn2-c2ccccc2)[C@H](c2cc(F)nc(F)c2)O1` (racemic) [Compound I-217] it is 8.34.
Consider `CNC(=O)c1cc(-c2nn(-c3ccccc3)c(NC(=O)N[C@@H]3C[C@@H](CCOC)O[C@H]3c3ccnc(F)c3)c2C)cnc1OC` [Compound I-319], for which the pIC50 was 8.92.
With `COCCN1C[C@@H](NC(=O)Nc2c(C)c(-c3cnn(C)c3)nn2-c2ccccc2)[C@H](c2ccc(F)c(F)c2)N1` (racemic) [Compound I-10], the pIC50 was 6.77.
For the compound `CNC(=O)c1ncc(-c2nn(-c3ccccc3)c(NC(=O)N[C@@H]3CN(CCOC)O[C@H]3c3cnc(F)c(F)c3)c2C)cc1C` [Compound I-253], the pIC50 is 8.89.
